Test results as given in PMC11638483, “Naringenin chalcone carbon double-bond reductases mediate dihydrochalcone biosynthesis in apple leaves” (Plant Physiology, 2024).

Tests used:
MdNCR1b [1] = experiment: product formation assay, varied naringenin chalcone […]; assay type: biochemical, Malus domestica; conditions: 400 µM NADPH, Bis-Tris propane 0.1 M, pH 3.0, 30 °C, 30 min; read-out: Km (apparent)
MdNCR1b [2] = experiment: product formation assay, varied NADPH […]; assay type: biochemical, Malus domestica; conditions: 100 µM naringenin chalcone, Bis-Tris propane 0.1 M, pH 3.0, 30 °C, 30 min

Row | Compound | Km (MdNCR1b [1]) [µM] | Km (MdNCR1b [2]) [µM]
1 | O=C(/C=C/c1ccc(O)cc1)c1c(O)cc(O)cc1O [compound 1, 2ʹ,4,4ʹ,6ʹ-tetrahydroxychalcone] | 9.9 ± 2.6 | 
2 | NC(=O)C1=CN([C@@H]2O[C@H](COP(=O)(O)OP(=O)(O)OC[C@H]3O[C@@H](n4cnc5c(N)ncnc54)[C@H](OP(=O)(O)O)[C@@H]3O)[C@@H](O)[C@H]2O)C=CC1 [NADPH] |  | 23.1 ± 9.4
